Columns and labels:
Assay in all cases: relative viability (nuclei count vs DMSO), 5 days (fraction); higher = more cells survive
[1] = compound: CC[C@@H](C)CNCC(=O)N1CCC2=C([C@@H]1COC3=CC=CC(=C3)C)C=CS2 [RU-SKI 43] + Cc1cc(Nc2cc(N3CCN(C)CC3)nc(Sc3ccc(NC(=O)C4CC4)cc3)n2)n[nH]1 [Tozasertib] (partner 0.1 µM)
How it was run: (§1)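 A single step with final 0.05% Triton X-100, 1% formaldehyde and 1 ug/ml Hoechst fixed the cells and stained nuclei 5 days after treatment. Lung cancer cell lines in 1536-well plates had been treated by pin tool the day after seeding with one drug alone or a fixed anchor-drug dose plus five library-drug doses (not always all listed) in √10 steps, and nuclei were counted on 4× images. Relative viability is the ratio of nuclei in treated wells to nuclei in vehicle wells, taken as the median of duplicate plates.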

[2] = compound: CCc1c2c(nc3ccc(OC(=O)N4CCC(N5CCCCC5)CC4)cc13)-c1cc3c(c(=O)n1C2)COC(=O)[C@]3(O)CC [Irinotecan] + CC(=O)Nc1cccc(-n2c(=O)n(C3CC3)c(=O)c3c(Nc4ccc(I)cc4F)n(C)c(=O)c(C)c32)c1 [Trametinib] (partner 0.02 µM)
How it was run: as §1

[3] = compound: CCc1c2c(nc3ccc(OC(=O)N4CCC(N5CCCCC5)CC4)cc13)-c1cc3c(c(=O)n1C2)COC(=O)[C@]3(O)CC [Irinotecan] + Nc1nc2[nH]cc(CCc3ccc(C(=O)N[C@@H](CCC(=O)O)C(=O)O)cc3)c2c(=O)[nH]1 [Pemetrexed] (partner 0.2 µM)
How it was run: as §1

[4] = compound: Cn1cc(-c2cnc3ccc4ccc(CS(=O)(=O)NCc5ccccn5)cc4c(=O)c3c2)cn1 [MK-8033] + Cc1nc(Nc2ncc(C(=O)Nc3c(C)cccc3Cl)s2)cc(N2CCN(CCO)CC2)n1 [Dasatinib] (partner 0.075 µM)
How it was run: as §1

Row | Cell Line | relative viability ([1]; first compound 0.1 µM) | relative viability ([1]; first compound 0.3162 µM) | relative viability ([1]; first compound 1 µM) | relative viability ([1]; first compound 3.162 µM) | relative viability ([1]; first compound 10 µM) | relative viability ([2]; first compound 0.6325 µM) | relative viability ([2]; first compound 2 µM) | relative viability ([2]; first compound 6.325 µM) | relative viability ([2]; first compound 20 µM) | relative viability ([3]; first compound 0.6325 µM) | relative viability ([3]; first compound 2 µM) | relative viability ([3]; first compound 6.325 µM) | relative viability ([3]; first compound 20 µM) | relative viability ([4]; first compound 0.02 µM) | relative viability ([4]; first compound 0.06325 µM) | relative viability ([4]; first compound 0.2 µM) | relative viability ([4]; first compound 0.6325 µM) | relative viability ([4]; first compound 2 µM)
1 | EMC-BAC-2 | 0.295 | 0.235 | 0.262 | 0.296 | 0.249 | 0.867 | 0.766 | 0.474 | 0.201 | 0.389 | 0.393 | 0.312 | 0.244 | 0.324 | 0.325 | 0.327 | 0.33 | 0.339
2 | EPLC-272H | 0.213 | 0.226 | 0.445 | 0.242 | 0.207 | – | 0.323 | 0.224 | 0.203 | 0.351 | 0.321 | 0.292 | 0.268 | 0.375 | 0.273 | 0.297 | 0.319 | 0.336
3 | H3255 | 0.721 | 0.726 | 0.292 | 0.76 | 0.489 | – | 0.506 | 0.346 | 0.37 | 0.529 | 0.603 | 0.393 | 0.37 | 0.366 | 0.347 | 0.299 | 0.319 | 0.438
4 | HARA | 0.125 | 0.0842 | 0.118 | 0.111 | 0.108 | 0.643 | 0.373 | 0.245 | 0.145 | 0.211 | 0.294 | 0.182 | 0.192 | 0.28 | 0.255 | 0.223 | 0.188 | 0.258
5 | HCC-15 | 0.43 | 0.327 | 0.27 | 0.252 | 0.219 | 0.325 | 0.233 | 0.179 | 0.174 | 0.18 | 0.188 | 0.207 | 0.189 | 0.639 | 0.541 | 0.542 | 0.6 | 0.616
6 | HCC-44 | 0.962 | – | 0.903 | 1.02 | 0.87 | 1.01 | 0.868 | 0.561 | 0.421 | 0.617 | 0.721 | 0.549 | 0.488 | – | – | – | – | –
7 | HCC-78 | 0.395 | 0.569 | 0.432 | 0.406 | 0.318 | 0.882 | 0.716 | 0.31 | 0.262 | 0.87 | 0.99 | 0.897 | 0.94 | 0.55 | – | 0.335 | 0.355 | 0.491
8 | HCC-366 | 0.098 | 0.0997 | 0.124 | 0.132 | 0.0872 | 0.266 | 0.184 | 0.0834 | 0.0768 | 0.15 | 0.192 | 0.0569 | 0.0611 | 0.617 | 0.638 | 0.564 | 0.634 | 0.651
9 | HCC-827 | 0.435 | 0.523 | 0.592 | 0.426 | 0.368 | 0.512 | 0.383 | 0.202 | 0.203 | 0.264 | 0.236 | 0.248 | 0.206 | 0.334 | 0.114 | 0.342 | 0.283 | 0.304

Source: the supplement of paper PMC10307832
